In ChEMBL document CHEMBL5226375, “Synthesis and Comprehensive in Vivo Activity Profiling of Olean-12-en-28-ol, 3β-Pentacosanoate in Experimental Autoimmune Encephalomyelitis: A Natural Remyelinating and Anti-Inflammatory Agent” (J Nat Prod, 2023):
Active and inactive are the calls of the source. No cut-off for these calls is given here.

Experiments:
[1] = system: Mus musculus; assay: Anti-inflammatory activity against MOG35-55-induced experimental autoimmune encephalomyelitis C57BL/6 mouse model assessed as fold change in CCL5 gene expression in brain at 0.3 mg/kg/day, ig for 14 days starting from 12th day of immunization by RT-qPCR analysis relative to control; assay type: functional; conditions: time 14 day
[2] = system: Mus musculus; assay: Anti-inflammatory activity against MOG35-55-induced experimental autoimmune encephalomyelitis C57BL/6 mouse model assessed as fold change in CXCL10 gene expression in brain at 0.3 mg/kg/day, ig for 14 days starting from 12th day of immunization by RT-qPCR analysis relative to control; assay type: functional; conditions: time 14 day
[3] = system: Mus musculus; assay: Anti-inflammatory activity against MOG35-55-induced experimental autoimmune encephalomyelitis C57BL/6 mouse model assessed as fold change in IL6 gene expression in brain at 0.3 mg/kg/day, ig for 14 days starting from 12th day of immunization by RT-qPCR analysis relative to control; assay type: functional; conditions: time 14 day
[4] = system: Mus musculus; assay: Anti-inflammatory activity against MOG35-55-induced experimental autoimmune encephalomyelitis C57BL/6 mouse model assessed as fold change in APP gene expression in brain at 0.3 mg/kg/day, ig for 14 days starting from 12th day of immunization by RT-qPCR analysis relative to control; assay type: functional; conditions: time 14 day
[5] = system: Mus musculus; assay: Anti-inflammatory activity against MOG35-55-induced experimental autoimmune encephalomyelitis C57BL/6 mouse model assessed as fold change in NFKB gene expression in brain at 0.15 mg/kg/day, ig for 14 days starting from 12th day of immunization by RT-qPCR analysis relative to control; assay type: functional; conditions: time 14 day
[6] = system: Mus musculus; assay: Anti-inflammatory activity against MOG35-55-induced experimental autoimmune encephalomyelitis C57BL/6 mouse model assessed as fold change in TNF-alpha gene expression in brain at 0.15 mg/kg/day, ig for 14 days starting from 12th day of immunization by RT-qPCR analysis relative to control; assay type: functional; conditions: time 14 day
[7] = system: Mus musculus; assay: Anti-inflammatory activity against MOG35-55-induced experimental autoimmune encephalomyelitis C57BL/6 mouse model assessed as fold change in MAG gene expression in brain at 0.15 mg/kg/day, ig for 14 days starting from 12th day of immunization by RT-qPCR analysis relative to control; assay type: functional; conditions: time 14 day
[8] = system: Mus musculus; assay: Anti-inflammatory activity against MOG35-55-induced experimental autoimmune encephalomyelitis C57BL/6 mouse model assessed as fold change in TGFB1 gene expression in brain at 0.15 mg/kg/day, ig for 14 days starting from 12th day of immunization by RT-qPCR analysis relative to control; assay type: functional; conditions: time 14 day
[9] = system: Mus musculus; assay: Anti-inflammatory activity against MOG35-55-induced experimental autoimmune encephalomyelitis C57BL/6 mouse model assessed as fold change in YWHAH gene expression in brain at 0.15 mg/kg/day, ig for 14 days starting from 12th day of immunization by RT-qPCR analysis relative to control; assay type: functional; conditions: time 14 day
[10] = system: Mus musculus; assay: Anti-inflammatory activity against MOG35-55-induced experimental autoimmune encephalomyelitis C57BL/6 mouse model assessed as reduction in serum Th1 cytokine level by measuring reduction in IFNG level at 0.3 mg/kg/day, ig for 14 days starting from 12th day of immunization by ELISA; assay type: functional, organism-based; conditions: time 14.0 day
[11] = system: Mus musculus; assay: Anti-inflammatory activity against MOG35-55-induced experimental autoimmune encephalomyelitis C57BL/6 mouse model assessed as reduction in serum chemokines level by measuring reduction in FASL level at 0.3 mg/kg/day, ig for 14 days starting from 12th day of immunization by ELISA; assay type: functional, organism-based; conditions: time 14.0 day
[12] = Stability of the compound in THF/phosphate buffer at pH 2.5 incubated for 2 hrs under stirring conditions by 1H-NMR analysis; assay type: physicochemical; conditions: pH 2.5, 2 h
[13] = system: Mus musculus; assay: Anti-inflammatory activity against MOG35-55-induced experimental autoimmune encephalomyelitis C57BL/6 mouse model assessed as reduction in EAE symptoms by measuring neurological regeneration and behavioral impotence at 600 mg/kg/day, ig for 14 days starting from 12th day of immunization; assay type: functional, organism-based; conditions: time 14.0 day
[14] = system: Mus musculus; assay: Anti-inflammatory activity against MOG35-55-induced experimental autoimmune encephalomyelitis C57BL/6 mouse model assessed as reduction in EAE symptoms by measuring reduction in cumulative scores at 600 mg/kg/day, ig for 14 days starting from 12th day of immunization and measured from day 12 to 38 post-immunization; assay type: functional, organism-based; conditions: time 1-26 day
[15] = system: Mus musculus; assay: Anti-inflammatory activity against MOG35-55-induced experimental autoimmune encephalomyelitis C57BL/6 mouse model assessed as fold change in HIF1A gene expression in brain at 600 mg/kg/day, ig for 14 days starting from 12th day of immunization by RT-qPCR analysis relative to control; assay type: functional; conditions: time 14 day
[16] = system: Mus musculus; assay: Anti-inflammatory activity against MOG35-55-induced experimental autoimmune encephalomyelitis C57BL/6 mouse model assessed as fold change in CD4 gene expression in brain at 600 mg/kg/day, ig for 14 days starting from 12th day of immunization by RT-qPCR analysis relative to control; assay type: functional; conditions: time 14 day
[17] = system: Mus musculus; assay: Anti-inflammatory activity against MOG35-55-induced experimental autoimmune encephalomyelitis C57BL/6 mouse model assessed as fold change in TGFB1 gene expression in brain at 600 mg/kg/day, ig for 14 days starting from 12th day of immunization by RT-qPCR analysis relative to control; assay type: functional; conditions: time 14 day
[18] = system: Mus musculus; assay: Anti-inflammatory activity against MOG35-55-induced experimental autoimmune encephalomyelitis C57BL/6 mouse model assessed as fold change in TNF-alpha gene expression in brain at 300 mg/kg/day, ig for 14 days starting from 12th day of immunization by RT-qPCR analysis relative to control; assay type: functional; conditions: time 14 day
[19] = system: Mus musculus; assay: Anti-inflammatory activity against MOG35-55-induced experimental autoimmune encephalomyelitis C57BL/6 mouse model assessed as reduction in IL-6 protein expression in brain at 300 to 600 mg/kg/day, ig for 14 days starting from 12th day of immunization by western blot analysis; assay type: functional, organism-based; conditions: dose 300-600 mg/kg/day, time 14.0 day
[20] = system: Mus musculus; assay: Anti-inflammatory activity against MOG35-55-induced experimental autoimmune encephalomyelitis C57BL/6 mouse model assessed as reduction in CXCL9 protein expression in brain at 300 to 600 mg/kg/day, ig for 14 days starting from 12th day of immunization by western blot analysis; assay type: functional, organism-based; conditions: dose 300-600 mg/kg/day, time 14.0 day
[21] = system: Mus musculus; assay: Anti-inflammatory activity against MOG35-55-induced experimental autoimmune encephalomyelitis C57BL/6 mouse model assessed as reduction in TGB1 protein expression in brain at 300 to 600 mg/kg/day, ig for 14 days starting from 12th day of immunization by western blot analysis; assay type: functional, organism-based; conditions: dose 300-600 mg/kg/day, time 14.0 day
[22] = system: Mus musculus; assay: Anti-inflammatory activity against MOG35-55-induced experimental autoimmune encephalomyelitis C57BL/6 mouse model assessed as reduction in serum monokines level by measuring reduction in IL-6 level at 600 mg/kg/day, ig for 14 days starting from 12th day of immunization by ELISA; assay type: functional, organism-based; conditions: time 14.0 day
[23] = system: Mus musculus; assay: Anti-inflammatory activity against MOG35-55-induced experimental autoimmune encephalomyelitis C57BL/6 mouse model assessed as methylation of CpG sites of […] gene promoter in brain at 600 mg/kg, ig for 14 days starting from 12th day of immunization by PCR analysis (reference value: 45 +/-7%); assay type: functional; conditions: time 14 day
[24] = system: Mus musculus; assay: Anti-inflammatory activity against MOG35-55-induced experimental autoimmune encephalomyelitis C57BL/6 mouse model assessed as methylation of CpG sites of SOCS5 gene promoter in brain at 600 mg/kg, ig for 14 days starting from 12th day of immunization by PCR analysis (reference value: 10.6 +/-4%); assay type: functional; conditions: time 14 day

CCCCCCCCc1ccc(CCC(N)(CO)CO)cc1 [FINGOLIMOD]
fold change (FC) [1]: -1.06 | fold change (FC) [2]: 2.17 | fold change (FC) [3]: -2.28 | fold change (FC) [4]: 1.72 | fold change (FC) [5]: 2.04 | fold change (FC) [6]: 2.21 | fold change (FC) [7]: -1.85 | fold change (FC) [8]: 1.86 | fold change (FC) [9]: 1.1 | Activity [10]: Active | Activity [11]: Active

CCCCCCCCCCCCCCCCCCCCCCCCC(=O)O[C@H]1CC[C@]2(C)[C@H]3CC=C4[C@@H]5CC(C)(C)CC[C@]5(CO)CC[C@@]4(C)[C@]3(C)CC[C@H]2C1(C)C
Stability [12]: Stable | Activity [13]: Active | Activity [14]: Active | fold change (FC) [15]: 1.77 | fold change (FC) [16]: 1.55 | fold change (FC) [17]: 8.29 | fold change (FC) [18]: 1.76 | Activity [19]: Active | Activity [20]: Active | Activity [21]: Active | Activity [22]: Active | Activity [23]: 44.7% | Activity [24]: 9.3%
